# Reference: PMC5533298 (Structure (London, England : 1993), 2017)
# Key:
# Assay in all cases: absorbance of p-nitrophenol at […] nm
# Format in all cases: biochemical
# BdGUS = target: T1, BdGUS (Phocaeicola dorei, UniProt Z9QL54SLC8); details: 800 uM PNPG, optimal pH, 37 C, 50 mM HEPES
# T1 sequence (Z9QL54SLC8 25-879): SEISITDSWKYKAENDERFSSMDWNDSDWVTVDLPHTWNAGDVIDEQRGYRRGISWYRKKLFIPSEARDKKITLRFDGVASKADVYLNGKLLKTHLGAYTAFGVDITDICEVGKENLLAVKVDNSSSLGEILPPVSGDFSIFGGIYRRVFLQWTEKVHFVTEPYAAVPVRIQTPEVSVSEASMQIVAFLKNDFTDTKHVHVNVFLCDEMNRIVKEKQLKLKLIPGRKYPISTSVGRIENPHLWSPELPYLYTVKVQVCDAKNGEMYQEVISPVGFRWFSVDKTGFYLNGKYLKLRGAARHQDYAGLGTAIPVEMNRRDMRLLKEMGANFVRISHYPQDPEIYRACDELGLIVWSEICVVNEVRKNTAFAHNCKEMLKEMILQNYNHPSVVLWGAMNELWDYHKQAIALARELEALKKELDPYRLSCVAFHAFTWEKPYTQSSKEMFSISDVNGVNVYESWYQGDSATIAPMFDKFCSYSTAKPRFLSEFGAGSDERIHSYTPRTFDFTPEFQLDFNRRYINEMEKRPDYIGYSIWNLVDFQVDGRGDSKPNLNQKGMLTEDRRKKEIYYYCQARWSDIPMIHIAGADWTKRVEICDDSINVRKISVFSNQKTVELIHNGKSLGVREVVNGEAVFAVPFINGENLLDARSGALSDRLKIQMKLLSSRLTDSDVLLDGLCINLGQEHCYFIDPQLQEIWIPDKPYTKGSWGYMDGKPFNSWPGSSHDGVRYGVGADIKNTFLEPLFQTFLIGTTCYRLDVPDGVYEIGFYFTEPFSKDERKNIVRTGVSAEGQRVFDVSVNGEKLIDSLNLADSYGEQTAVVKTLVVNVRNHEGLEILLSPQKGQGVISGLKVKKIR
# EcGUS = EcGUS (Escherichia coli, UniProt P05804); details: 800 uM PNPG, optimal pH (broad, up to 7.4), 37 C, 50 mM HEPES
# EeGUS = target: T2, EeGUS (Lachnospira eligens, UniProt C4Z6Z2); details: 800 uM PNPG, pH 6.5, 37 C, 50 mM HEPES
# T2 sequence (C4Z6Z2 1-611): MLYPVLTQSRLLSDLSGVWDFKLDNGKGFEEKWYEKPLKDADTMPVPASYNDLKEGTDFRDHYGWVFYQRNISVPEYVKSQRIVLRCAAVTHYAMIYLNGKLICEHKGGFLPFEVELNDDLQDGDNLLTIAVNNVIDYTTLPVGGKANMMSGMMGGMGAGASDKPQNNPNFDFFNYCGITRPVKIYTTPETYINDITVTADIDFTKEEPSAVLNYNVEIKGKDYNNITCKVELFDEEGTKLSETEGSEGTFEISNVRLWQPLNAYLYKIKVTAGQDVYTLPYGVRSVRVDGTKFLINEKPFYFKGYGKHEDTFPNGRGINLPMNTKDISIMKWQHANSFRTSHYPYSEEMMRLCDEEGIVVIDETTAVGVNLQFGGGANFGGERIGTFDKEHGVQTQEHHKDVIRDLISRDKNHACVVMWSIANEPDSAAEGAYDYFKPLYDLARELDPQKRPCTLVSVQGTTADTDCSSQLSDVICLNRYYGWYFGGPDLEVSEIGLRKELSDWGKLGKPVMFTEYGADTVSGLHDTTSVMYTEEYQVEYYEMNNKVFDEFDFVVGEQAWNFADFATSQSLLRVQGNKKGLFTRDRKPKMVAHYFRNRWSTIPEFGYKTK
# BfGUS = BfGUS (Bacteroides fragilis, UniProt Q5LIC7); details: 800 uM PNPG, optimal pH, 37 C, 50 mM HEPES
# PmGUS = target: T3, PmGUS (Parabacteroides merdae, UniProt K5ZWV5); details: 800 uM PNPG, optimal pH, 37 C, 50 mM HEPES
# T3 sequence (K5ZWV5 20-826): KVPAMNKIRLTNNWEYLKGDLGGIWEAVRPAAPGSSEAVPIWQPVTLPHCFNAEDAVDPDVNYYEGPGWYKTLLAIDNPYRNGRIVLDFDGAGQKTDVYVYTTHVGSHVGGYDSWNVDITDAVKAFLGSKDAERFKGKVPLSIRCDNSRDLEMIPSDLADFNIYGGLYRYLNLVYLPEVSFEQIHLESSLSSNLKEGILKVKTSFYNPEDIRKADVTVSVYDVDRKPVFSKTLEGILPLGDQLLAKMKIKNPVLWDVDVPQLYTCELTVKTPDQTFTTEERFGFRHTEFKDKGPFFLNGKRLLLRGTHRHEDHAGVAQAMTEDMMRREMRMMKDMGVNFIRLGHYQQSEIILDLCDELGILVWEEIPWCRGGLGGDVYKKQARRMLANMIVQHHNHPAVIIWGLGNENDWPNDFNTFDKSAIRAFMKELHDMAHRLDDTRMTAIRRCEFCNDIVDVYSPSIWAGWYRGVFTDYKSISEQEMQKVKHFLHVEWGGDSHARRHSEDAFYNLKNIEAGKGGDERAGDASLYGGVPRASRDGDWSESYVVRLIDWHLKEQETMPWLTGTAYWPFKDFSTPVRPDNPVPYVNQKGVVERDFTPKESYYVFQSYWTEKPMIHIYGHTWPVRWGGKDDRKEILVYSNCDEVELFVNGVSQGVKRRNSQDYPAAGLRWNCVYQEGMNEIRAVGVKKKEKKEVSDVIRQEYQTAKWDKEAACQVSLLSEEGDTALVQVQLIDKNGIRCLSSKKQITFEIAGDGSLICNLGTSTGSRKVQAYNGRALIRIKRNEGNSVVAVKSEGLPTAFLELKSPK
# BuGUS = target: T4, BuGUS (Bacteroides uniformis, UniProt A0A078SUX9); details: 800 uM PNPG, optimal pH, 37 C, 50 mM HEPES
# T4 sequence (A0A078SUX9 32-886 limits assumed): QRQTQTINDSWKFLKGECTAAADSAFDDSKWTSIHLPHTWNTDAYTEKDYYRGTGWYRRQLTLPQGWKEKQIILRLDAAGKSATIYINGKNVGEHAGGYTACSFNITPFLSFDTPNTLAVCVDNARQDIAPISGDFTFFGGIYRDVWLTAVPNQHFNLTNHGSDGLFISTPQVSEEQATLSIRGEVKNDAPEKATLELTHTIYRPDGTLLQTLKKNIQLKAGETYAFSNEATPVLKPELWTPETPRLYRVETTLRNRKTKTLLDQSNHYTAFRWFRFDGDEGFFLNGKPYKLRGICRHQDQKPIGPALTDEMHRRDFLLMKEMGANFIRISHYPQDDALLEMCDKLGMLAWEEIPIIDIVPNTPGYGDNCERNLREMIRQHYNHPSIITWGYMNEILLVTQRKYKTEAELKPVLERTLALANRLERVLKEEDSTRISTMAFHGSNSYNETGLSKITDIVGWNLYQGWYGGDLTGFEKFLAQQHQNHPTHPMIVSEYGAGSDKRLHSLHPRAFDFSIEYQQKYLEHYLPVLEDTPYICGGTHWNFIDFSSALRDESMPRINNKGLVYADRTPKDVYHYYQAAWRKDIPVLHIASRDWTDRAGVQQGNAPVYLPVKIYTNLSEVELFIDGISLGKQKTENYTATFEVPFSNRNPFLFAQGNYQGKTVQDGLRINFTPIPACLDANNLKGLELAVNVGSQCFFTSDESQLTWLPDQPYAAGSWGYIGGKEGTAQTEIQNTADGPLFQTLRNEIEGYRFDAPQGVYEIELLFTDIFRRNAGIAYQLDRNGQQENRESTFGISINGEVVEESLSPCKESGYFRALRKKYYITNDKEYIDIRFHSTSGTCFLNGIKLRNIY
# Chain of EcGUS (P05804 whole entry): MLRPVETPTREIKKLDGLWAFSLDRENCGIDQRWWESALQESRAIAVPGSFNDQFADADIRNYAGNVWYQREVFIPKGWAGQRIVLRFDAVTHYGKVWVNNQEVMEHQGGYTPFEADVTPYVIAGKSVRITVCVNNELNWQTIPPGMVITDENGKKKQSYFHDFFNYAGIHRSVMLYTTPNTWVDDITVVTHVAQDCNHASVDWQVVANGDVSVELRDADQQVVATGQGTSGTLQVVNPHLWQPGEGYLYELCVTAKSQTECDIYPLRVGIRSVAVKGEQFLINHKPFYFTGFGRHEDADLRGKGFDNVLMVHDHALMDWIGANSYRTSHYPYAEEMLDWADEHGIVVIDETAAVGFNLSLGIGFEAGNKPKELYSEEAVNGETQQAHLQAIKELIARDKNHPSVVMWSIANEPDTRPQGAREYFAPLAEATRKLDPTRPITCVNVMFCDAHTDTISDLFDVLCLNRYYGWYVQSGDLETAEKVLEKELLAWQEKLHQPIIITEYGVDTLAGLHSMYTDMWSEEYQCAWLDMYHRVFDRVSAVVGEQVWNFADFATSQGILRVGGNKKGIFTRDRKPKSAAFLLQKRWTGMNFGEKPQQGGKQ
# Chain of BfGUS (Q5LIC7 38-693): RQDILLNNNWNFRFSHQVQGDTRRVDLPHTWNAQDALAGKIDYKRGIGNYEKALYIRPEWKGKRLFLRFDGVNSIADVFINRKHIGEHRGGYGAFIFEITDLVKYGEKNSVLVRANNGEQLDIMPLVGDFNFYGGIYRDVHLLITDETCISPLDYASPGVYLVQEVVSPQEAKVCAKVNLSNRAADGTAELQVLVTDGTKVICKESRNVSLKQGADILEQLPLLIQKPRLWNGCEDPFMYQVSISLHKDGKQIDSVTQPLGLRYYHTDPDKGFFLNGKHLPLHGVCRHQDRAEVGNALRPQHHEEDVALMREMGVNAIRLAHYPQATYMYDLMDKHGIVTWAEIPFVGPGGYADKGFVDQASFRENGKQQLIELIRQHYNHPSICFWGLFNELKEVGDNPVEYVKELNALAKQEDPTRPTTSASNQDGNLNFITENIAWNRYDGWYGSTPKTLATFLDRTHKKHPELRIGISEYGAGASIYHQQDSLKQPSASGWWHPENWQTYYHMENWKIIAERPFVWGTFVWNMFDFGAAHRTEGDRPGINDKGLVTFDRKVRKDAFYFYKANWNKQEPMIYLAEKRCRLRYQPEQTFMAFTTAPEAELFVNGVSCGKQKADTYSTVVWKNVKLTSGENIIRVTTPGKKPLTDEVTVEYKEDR
smiles,measurement,setting,value
O=C(O)[C@H]1O[C@@H](Oc2ccc([N+](=O)[O-])cc2)[C@H](O)[C@@H](O)[C@@H]1O [PNPG],absorbance of p-nitrophenol at 410 nm,BdGUS,PNPG kinetic studies with each enzyme at its optimum pH
same,absorbance of p-nitrophenol at 410 nm,EcGUS,E. coli and Eu. eligens GUS are remarkably efficient at PNPG processing
same,absorbance of p-nitrophenol at 410 nm,EeGUS,E. coli and Eu. eligens GUS are remarkably efficient at PNPG processing
same,absorbance of p-nitrophenol at 410 nm,BfGUS,PNPG kinetic studies with each enzyme at its optimum pH
same,absorbance of p-nitrophenol at 410 nm,PmGUS,PNPG kinetic studies with each enzyme at its optimum pH
same,absorbance of p-nitrophenol at 410 nm,BuGUS,PNPG kinetic studies with each enzyme at its optimum pH
